In brackets after ≈: the same amount, converted by molar mass.
Test system: Mycobacterium tuberculosis
Assay: Antimycobacterial activity against multidrug-resistant Mycobacterium tuberculosis 2745/09
Format: functional

Compound	MIC [µg/mL]
O=c1nc(NCc2ccc3c(c2)OCCO3)sc2c([N+](=O)[O-])cc(C(F)(F)F)cc12	0.03 (≈ 0.0683 µM)
Cc1ccc(CNc2nc(=O)c3cc(C(F)(F)F)cc([N+](=O)[O-])c3s2)n1C	≤ 0.125
CN(C(=O)CN1CCN(c2nc(=O)c3cc(C(F)(F)F)cc([N+](=O)[O-])c3s2)CC1)c1ccccc1	0.03 (≈ 0.0591 µM)
O=c1nc(N2CCN(c3nccs3)CC2)sc2c([N+](=O)[O-])cc(C(F)(F)F)cc12	≤ 0.125
CN(C)c1ccc(CN(C)c2nc(=O)c3cc(C(F)(F)F)cc([N+](=O)[O-])c3s2)cc1	0.03 (≈ 0.0684 µM)
O=c1nc(N2CCC(F)(F)CC2)sc2c([N+](=O)[O-])cc(C(F)(F)F)cc12	≤ 0.125
CN(c1nc(=O)c2cc(C(F)(F)F)cc([N+](=O)[O-])c2s1)[C@H]1CCN(Cc2ccccc2)C1	> 0.03
O=c1nc(N2CCC(c3ccccc3)CC2)sc2c([N+](=O)[O-])cc(C(F)(F)F)cc12	≤ 0.0125
COC(=O)C1CN(c2nc(=O)c3cc(C(F)(F)F)cc([N+](=O)[O-])c3s2)CCC12OC[C@H](C)O2 (some centres not stated)	> 0.1
COC(=O)[C@@H]1OC2(CCN(c3nc(=O)c4cc(C(F)(F)F)cc([N+](=O)[O-])c4s3)CC2)O[C@H]1c1ccccc1	> 0.03
CCCOCC1COC2(CCN(c3nc(=O)c4cc(C(F)(F)F)cc([N+](=O)[O-])c4s3)CC2)O1 (configuration not stated)	≤ 0.015
C[C@H]1COC2(CCN(c3nc(=O)c4cc(C(F)(F)F)cc([N+](=O)[O-])c4s3)CC2)O1 [BTZ-043]	≤ 0.015
